From patent US10548911B2, “Small molecule anti-scarring agents” (UNIVERSITY OF ROCHESTER, priority 2014, dated 2020)

Experiments:
TGFβ signaling = assay: Chembridge collection screen with HEK293-Thy1 SBE-Luc cell line (normalized luciferase activity); assay type: cell-based, human; conditions: Chembridge collection re-screen
From the text: Using the recombinant HEK293-Thy1 SBE-Luc cell line described in the preceding Examples, the Chembridge collection of 20,000 small molecules was screened to identify other small molecules that inhibit TGFβ activity and, thus, may be novel anti-scarring compounds
100 top candidates from the initial screen were re-screened. Numbers indicate the Chembride molecule ID number. The second screen controls for toxicity and non-specific effects by using a constitutive luciferase to normalize results. This assay can be further used in a high throughput fashion to analyze newly derived compounds and monitor structure activity relationships (SAR) to discover new molecules that can serve as the basis for anti-scarring therapeutics.
The two-dimensional structures of the molecules are depicted in the left hand column. Chembridge collection IDs are listed in the second column and the additional columns denote the following (in order): the molecular name, the percent inhibition of the molecule using the screen (100% being a complete inhibition) (% Inhib.), and the internal key (key) for further identification in FIGS. 22 and 23.

[1] = system: TGFβ-induced myofibroblast formation in human fibroblasts; assay: Western blot of myofibroblast markers αSMA and calponin in TGFβ-treated human (TED orbital) fibroblasts; assay type: cell-based; conditions: 250 nM, TGFβ, 72 hours
Protocol: TED fibroblasts were treated with TGFβ (1 ng/ml) in the presence or absence of 10-250 nM salinomycin for 72 hours to allow formation of myofibroblasts. After 72 hours, cells were harvested and analyzed by Western blot. As expected, the fibroblasts robustly responded to TGFβ, expressing high levels of αSMA and calponin (FIG. 2A). […] At 50 nM salinomycin, expression of αSMA was reduced by 4-fold over TGFβ treatment alone. Furthermore, at 250 nM salinomycin, αSMA expression was reduced by approximately 16-fold, to levels at or below untreated fibroblasts. […] Another key role of myofibroblasts in scar formation is the production of collagen. Whether salinomycin could block myofibroblast collagen production was assessed. Cells were treated with TGFβ and salinomycin as above and after 72 hours, culture medium was collected and analyzed for collagen levels using a specific collagen I antibody and slot blot analysis.
To test these four compounds, human fibroblasts were treated with TGFβ in the absence or presence of 250 nM of either salinomycin, narasin, clioquinol or monensin for 72 hours. After treatment, cell lysates were harvested and analyzed for the presence of the myofibroblast markers, αSMA and calponin (FIG. 3B).

[2] = system: human orbital fibroblasts; assay: Myofibroblast formation assay (cell images) of Chembridge hits in human orbital fibroblasts; assay type: cell-based
Protocol: FIG. 22 is a panel of cell images showing efficacy of selected Chembridge hits in myofibroblast formation assays using human orbital fibroblasts. […] Key: SNC: salinomycin control; A1: 5255687; A2:5130037; A4:9040737; B3:9057423; C2:9018748; C3:9048694; C4:9022265.
(§1) Selected Chembridge hits were tested in myofibroblast formation assays using human orbital fibroblasts (FIG. 22) and human lung fibroblasts (FIG. 23).

human lung fibroblasts = assay: Myofibroblast formation assay (cell images) of Chembridge hits in human lung fibroblasts; assay type: cell-based
Protocol: FIG. 23 is a panel of cell images showing efficacy of selected Chembridge hits in myofibroblast formation assays using human lung fibroblasts. […] Key: SNC: salinomycin control; A1: 5255687; A2:5130037; A4:9040737; B3:9057423; C2:9018748; C3:9048694; C4:9022265.
as §1

Compound: Cc1nn2c(=O)cc(-c3ccc(Cl)cc3)[nH]c2c1-c1ccccc1 [compound 9080334, 5-(4-chlorophenyl)-2-methyl-3-phenylpyrazolo[1,5-a]pyrimidin-7(4H)-one]
- % Inhib. (percent inhibition of the molecule using the screen, 100% being a complete inhibition) (TGFβ signaling): 41%

Compound: CC[C@@]1([C@@H]2O[C@@H]([C@H]3O[C@@](O)(CO)[C@H](C)C[C@@H]3C)C[C@@H]2C)CC[C@H]([C@]2(C)CC[C@]3(C[C@H](O)[C@@H](C)[C@@H]([C@@H](C)[C@@H](OC)[C@H](C)C(=O)O)O3)O2)O1 [monensin]
- expression of αSMA and calponin [1]: inhibited expression of αSMA and calponin

Compound: CC(C)(C)NS(=O)(=O)c1ccc(NC(=O)c2ccncc2)cc1 [compound 9038066, N-{4-[(tert-butylamino)sulfonyl]phenyl}isonicotinamide]
- % Inhib. (percent inhibition of the molecule using the screen, 100% being a complete inhibition) (TGFβ signaling): 54%

Compound: CNC(=O)c1ccccc1OCCOc1ccccc1 [compound 9057423, N-methyl-2-(2-phenoxyethoxy)benzamide]
- TGFβ induced myofibroblast formation (cell images) [2]: preventing TGFβ induced myofibroblast formation
- cell death (cell images) [2]: not causing cell death
- % Inhib. (percent inhibition of the molecule using the screen, 100% being a complete inhibition) (TGFβ signaling): 51%
- TGFβ induced myofibroblast formation (cell images) (human lung fibroblasts): preventing TGFβ induced myofibroblast formation
- cell death (cell images) (human lung fibroblasts): not causing cell death

Compound: Cc1cc(Cl)c(Cl)cc1S(=O)(=O)NCc1ccncc1 [compound 9018748, 4,5-dichloro-2-methyl-N-(4-pyridinylmethyl)benzenesulfonamide]
- TGFβ induced myofibroblast formation (cell images) [2]: preventing TGFβ induced myofibroblast formation
- cell death (cell images) [2]: not causing cell death
- % Inhib. (percent inhibition of the molecule using the screen, 100% being a complete inhibition) (TGFβ signaling): 95%
- TGFβ induced myofibroblast formation (cell images) (human lung fibroblasts): preventing TGFβ induced myofibroblast formation
- cell death (cell images) (human lung fibroblasts): not causing cell death

Compound: Oc1c(I)cc(Cl)c2cccnc12 [clioquinol]
- expression of αSMA and calponin [1]: did not inhibit

Compound: CC(Nc1ncnc2c1oc1ccccc12)c1ccccc1.Cl (stereo not shown) [compound 9104696, N-(1-phenylethyl)[1]benzofuro[3,2-d]pyrimidin-4-amine hydrochloride]
- % Inhib. (percent inhibition of the molecule using the screen, 100% being a complete inhibition) (TGFβ signaling): 75%

Compound: Cc1ccc(C(C)NC(=O)c2c(Cl)cnn2C)cc1C (stereo not shown) [compound 9043411, 4-chloro-N-[1-(3,4-dimethylphenyl)ethyl]-1-methyl-1H-pyrazole-5-carboxamide]
- % Inhib. (percent inhibition of the molecule using the screen, 100% being a complete inhibition) (TGFβ signaling): 37%

Compound: Cc1cc(S(=O)(=O)NCc2ccncc2)ccc1F [compound 9021391, 4-fluoro-3-methyl-N-(4-pyridinylmethyl)benzenesulfonamide]
- % Inhib. (percent inhibition of the molecule using the screen, 100% being a complete inhibition) (TGFβ signaling): 66%

Compound: CCOc1ccc(S(=O)(=O)NCc2ccncc2)c(C)c1C [compound 9022265, 4-ethoxy-2,3-dimethyl-N-(4-pyridinylmethyl)benzenesulfonamide]
- TGFβ induced myofibroblast formation (cell images) [2]: preventing TGFβ induced myofibroblast formation
- cell death (cell images) [2]: not causing cell death
- % Inhib. (percent inhibition of the molecule using the screen, 100% being a complete inhibition) (TGFβ signaling): 84%
- TGFβ induced myofibroblast formation (cell images) (human lung fibroblasts): preventing TGFβ induced myofibroblast formation
- cell death (cell images) (human lung fibroblasts): not causing cell death

Compound: Cc1ccc(NC2=Nn3c(Cc4ccccc4)nnc3SC2)cc1 [compound 9016022, 3-benzyl-N-(4-methylphenyl)-7H-[1,2,4]triazolo[3,4-b][1,3,4]thiadiazin-6-amine]
- % Inhib. (percent inhibition of the molecule using the screen, 100% being a complete inhibition) (TGFβ signaling): 46%

Compound: O=C(Nc1nc2ccccc2[nH]1)c1ccccc1Br [compound 7263741, N-1H-benzimidazol-2-yl-2-bromobenzamide]
- % Inhib. (percent inhibition of the molecule using the screen, 100% being a complete inhibition) (TGFβ signaling): 46%

Compound: CCOC(=O)c1c(N)sc2c1CCC/C2=N/O [compound 5130037, ethyl 2-amino-7-(hydroxyimino)-4,5,6,7-tetrahydro-1-benzothiophene-3-carboxylate]
- TGFβ induced myofibroblast formation (cell images) [2]: preventing TGFβ induced myofibroblast formation
- cell death (cell images) [2]: not causing cell death
- % Inhib. (percent inhibition of the molecule using the screen, 100% being a complete inhibition) (TGFβ signaling): 68%
- TGFβ induced myofibroblast formation (cell images) (human lung fibroblasts): preventing TGFβ induced myofibroblast formation
- cell death (cell images) (human lung fibroblasts): not causing cell death

Compound: COc1ccccc1NC(=O)C#Cc1ccccc1 [compound 9048694, N-(2-methoxyphenyl)-3-phenyl-2-propynamide]
- TGFβ induced myofibroblast formation (cell images) [2]: preventing TGFβ induced myofibroblast formation
- cell death (cell images) [2]: not causing cell death
- % Inhib. (percent inhibition of the molecule using the screen, 100% being a complete inhibition) (TGFβ signaling): 92%
- TGFβ induced myofibroblast formation (cell images) (human lung fibroblasts): preventing TGFβ induced myofibroblast formation
- cell death (cell images) (human lung fibroblasts): not causing cell death

Compound: O=S(=O)(NCc1ccncc1)c1cccc(F)c1 [compound 9019912, 3-fluoro-N-(4-pyridinylmethyl)benzenesulfonamide]
- % Inhib. (percent inhibition of the molecule using the screen, 100% being a complete inhibition) (TGFβ signaling): 58%

Compound: Cc1cc(C)c(C(=O)/C=C/c2ccccc2Cl)c(=O)[nH]1 [compound 5255687, 3-[3-(2-chlorophenyl)acryloyl]-4,6-dimethyl-2(1H)-pyridinone]
- TGFβ induced myofibroblast formation (cell images) [2]: preventing TGFβ induced myofibroblast formation
- cell death (cell images) [2]: not causing cell death
- % Inhib. (percent inhibition of the molecule using the screen, 100% being a complete inhibition) (TGFβ signaling): 70%
- TGFβ induced myofibroblast formation (cell images) (human lung fibroblasts): preventing TGFβ induced myofibroblast formation
- cell death (cell images) (human lung fibroblasts): not causing cell death

Compound: Cc1nn2c(=O)cc(-c3ccccc3)[nH]c2c1-c1ccc(F)cc1 [compound 9040737, 3-(4-fluorophenyl)-2-methyl-5-phenylpyrazolo[1,5-a]pyrimidin-7(4H)-one]
- TGFβ induced myofibroblast formation (cell images) [2]: preventing TGFβ induced myofibroblast formation
- cell death (cell images) [2]: not causing cell death
- % Inhib. (percent inhibition of the molecule using the screen, 100% being a complete inhibition) (TGFβ signaling): 63%
- TGFβ induced myofibroblast formation (cell images) (human lung fibroblasts): preventing TGFβ induced myofibroblast formation
- cell death (cell images) (human lung fibroblasts): not causing cell death

Compound: CC1=Nc2ccccc2NC2=C1C(=O)CC(c1ccco1)C2 (stereo not shown) [compound 9025733, 3-(2-furyl)-11-methyl-2,3,4,5-tetrahydro-1H-dibenzo[b,e][1,4]diazepin-1-one]
- % Inhib. (percent inhibition of the molecule using the screen, 100% being a complete inhibition) (TGFβ signaling): 84%

Compound: OCc1ccc(Sc2ccc(Cl)cc2)o1 [compound 7586770, {5-[(4-chlorophenyl)thio]-2-furyl}methanol]
- % Inhib. (percent inhibition of the molecule using the screen, 100% being a complete inhibition) (TGFβ signaling): 80%

Compound: CCN(CC)C(=O)c1ccc(Cl)c(N)c1 [compound 9116592, 3-amino-4-chloro-N,N-diethylbenzamide]
- % Inhib. (percent inhibition of the molecule using the screen, 100% being a complete inhibition) (TGFβ signaling): 92%

Compound: C=CCOc1ccc(NC(=O)c2ccc(CN3CCOCC3)cc2)cc1 [compound 7991998, N-[4-(allyloxy)phenyl]-4-(4-morpholinomethyl)benzamide]
- % Inhib. (percent inhibition of the molecule using the screen, 100% being a complete inhibition) (TGFβ signaling): 60%
